One may read the IC50 as the point on the concentration scale where inhibition reaches its midpoint.

What all share (assay type): cell-based
Conditions in all cases: Homo sapiens, 5 hours at 37° C., 1% DMSO

The subject of one test is Aβ-38. In words: Aβ-38 level in conditioned media of 2B7 cells (MSD 3-PLEX ELISA). As for the experimental part:
(§1) Assays were conducted to determine the ability of a Compound of Formula I to modulate […], and Aβ-38.
(§2) Human (6E10) Ab 3-PLEX ELISA kits were purchased from Meso Scale Discovery Labs, 9328 Gaither Road, Gaithersburg, Md. 20877 (Catalog Number K15148E-3). Plates with capture antibodies were blocked for 1-2 hours at room temperature with 150 μL of the manufactures blocking reagent.
(§3) Cultured 2B7 cells in 96 well plate with 250 μL of media per well until confluent;
(§4) Prepared serial dilutions of compounds in DMSO at 100× the final desired concentration;
(§5) Washed wells with 2B7 cells 1× with 250 μL of media;
(§6) Diluted DMSO stocks 1:100 into media:
(§7) Added 250 μL of media containing compounds (1% DMSO) to wells with 2B7 cells for 5 hours at 37° C.
(§8) Diluted conditioned media: 1 part media with 1% DMSO and 1 part blocking buffer;
(§9) 150 μL of the 250 μL of conditioned media were used.
(§10) Seven point standard curve samples were prepared that contained Aβ-42, Aβ-40, and Aβ-38. The highest concentration of Aβ-42 and Aβ-38 was […] and the highest concentration of Aβ-40 was 10,000 pg/mL. Subsequent serial dilutions were 1:3 and the final composition of each sample was 1 part blocking buffer and 1 part cell medium containing 1% DMSO.
(§11) Blocked plates are washed 5× with MSD wash buffer with a plate washer;
(§12) 25 μL of detection antibody and blocker G reagent in MSD blocking solution was added;
(§13) 25 μL of samples (1 part conditioned media containing 1% DMSO and 1 part MSD blocking buffer) were then added;
(§14) Plates were incubated overnight at 4 degrees C. or 2 hours at room temperature.
(§15) Washed wells 5× with MSD wash buffer;
(§16) Added 150 μL 2×MSD read buffer;
(§17) Aβ peptide levels for each peptide were calculated from the standard curve using the MSD software provided with the MSD 2400 Imager. Percent vehicle values for each compound dosage were then calculated and fit to a 4 parameter curve generating IC50 values.
On the technique in general: An ELISA detects its analyte on a solid surface through an enzyme-linked reagent.

For another test, the system named is Aβ-40. In words: Aβ-40 level in conditioned media of 2B7 cells (MSD 3-PLEX ELISA). As for the experimental part: as §1, §2, §3, §4, §5, §6, §7, §8, §9, §10, §11, §12, §13, §14, §15, §16, §17
For another test, the system named is Aβ-42. In words: Aβ-42 level in conditioned media of 2B7 cells (MSD 3-PLEX ELISA). As for the experimental part:
as §1, §2, §3, §4, §5, §6, §7, §8, §9, §10, §11, §12, §13, §14, §15, §16, §17

Setting [1] is: inflection of dose-response curve, read-out: Aβ 40 DR IC50 Inflection.
The mark [2] stands for this setting: inflection of dose-response curve, read-out: Aβ 42 DR IC50 Inflection.
[3] abbreviates: inflection of dose-response curve, read-out: Aβ 38 DR IC50 Inflection.

Like-named read-outs stand apart in the source and are kept apart here.

As to `CC(C)[C@@H](OC(=O)N1CCC1)[C@H]1C[C@@H](C)[C@H]2[C@H](O1)[C@H](O)[C@@]1(C)[C@@H]3CC[C@H]4C(C)(C)[C@@H](OC(=O)N5CC[C@H](C(=O)O)C5)CC[C@@]45C[C@@]35CC[C@]21C` [Compound I-1], the IC50 in the test on Aβ-38 (read-out: Aβ 38 IC50) was 1000 to 5000 nM; in the test with Aβ-40 (setting [1]) it was over 5000 nM; in the test on Aβ-40 (read-out: Aβ 40 IC50) it was over 5000 nM; with Aβ-42 (setting [2]) it was 1000 to 5000 nM; in the test on Aβ-42 (read-out: Aβ 42 IC50) it was 1000 to 5000 nM.
Turning to `CC(C)[C@@H](OC(=O)N1CCC1)[C@H]1C[C@@H](C)[C@H]2[C@H](O1)[C@H](O)[C@@]1(C)[C@@H]3CC[C@H]4C(C)(C)[C@@H](OC(=O)N[C@H]5CCNC5=O)CC[C@@]45C[C@@]35CC[C@]21C` [Compound I-2], the half-maximal inhibitory concentration (IC50) is 501 to 1000 nM in the test with Aβ-38 (read-out: Aβ 38 IC50), over 5000 nM in the test with Aβ-40 (read-out: Aβ 40 IC50) and 100 to 500 nM in the test with Aβ-42 (read-out: Aβ 42 IC50).
With `CC(C)[C@@H](OC(=O)N1CCC1)[C@H]1C[C@@H](C)[C@H]2[C@H](O1)[C@H](O)[C@@]1(C)[C@@H]3CC[C@H]4C(C)(C)[C@@H](OC(=O)N[C@@H]5CCCNC5=O)CC[C@@]45C[C@@]35CC[C@]21C` [Compound I-3], the IC50 with Aβ-38 (setting [3]) was 1000 to 5000 nM; in the test with Aβ-38 (read-out: Aβ 38 IC50), 501 to 1000 nM; in the test on Aβ-40 (setting [1]), over 5000 nM; with Aβ-40 (read-out: Aβ 40 IC50), over 5000 nM; in the test on Aβ-42 (setting [2]), 100 to 500 nM; with Aβ-42 (read-out: Aβ 42 IC50) it was 100 to 500 nM.
As for `CC(C)[C@@H](OC(=O)N1CCC1)[C@H]1C[C@@H](C)[C@H]2[C@H](O1)[C@H](O)[C@@]1(C)[C@@H]3CC[C@H]4C(C)(C)[C@@H](OC(=O)N[C@@H](C)C(=O)O)CC[C@@]45C[C@@]35CC[C@]21C` [Compound I-4], the concentration for half-maximal inhibition (IC50) was 501 to 1000 nM with Aβ-38 (setting [3]), 1000 to 5000 nM in the test on Aβ-38 (read-out: Aβ 38 IC50), over 5000 nM in the test with Aβ-40 (read-out: Aβ 40 IC50) and 501 to 1000 nM in the test with Aβ-42 (read-out: Aβ 42 IC50).
With `CC(C)[C@@H](OC(=O)N1CCC1)[C@H]1C[C@@H](C)[C@H]2[C@H](O1)[C@H](O)[C@@]1(C)[C@@H]3CC[C@H]4C(C)(C)[C@@H](OC(=O)N[C@@H]5CCNC5=O)CC[C@@]45C[C@@]35CC[C@]21C` [Compound I-5], the 50% inhibitory concentration (IC50) in the test on Aβ-38 (setting [3]) is 100 to 500 nM; in the test on Aβ-38 (read-out: Aβ 38 IC50) it was 100 to 500 nM; with Aβ-40 (setting [1]), over 5000 nM; in the test with Aβ-40 (read-out: Aβ 40 IC50), over 5000 nM; in the test with Aβ-42 (read-out: Aβ 42 IC50) it was 100 to 500 nM.
As to `CC(C)[C@@H](OC(=O)N1CCC1)[C@H]1C[C@@H](C)[C@H]2[C@H](O1)[C@H](O)[C@@]1(C)[C@@H]3CC[C@H]4C(C)(C)[C@@H](OC(=O)N[C@H]5CCCNC5=O)CC[C@@]45C[C@@]35CC[C@]21C` [Compound I-6], the IC50 with Aβ-38 (setting [3]) is 100 to 500 nM; with Aβ-38 (read-out: Aβ 38 IC50), 100 to 500 nM; with Aβ-40 (setting [1]) it was over 5000 nM; in the test on Aβ-40 (read-out: Aβ 40 IC50), over 5000 nM; in the test with Aβ-42 (read-out: Aβ 42 IC50), 100 to 500 nM.
Turning to `CC(C)[C@@H](OC(=O)N1CCC1)[C@H]1C[C@@H](C)[C@H]2[C@H](O1)[C@H](O)[C@@]1(C)[C@@H]3CC[C@H]4C(C)(C)[C@@H](OC(=O)NCCC(=O)O)CC[C@@]45C[C@@]35CC[C@]21C` [Compound I-8], the IC50 in the test with Aβ-38 (setting [3]) was 501 to 1000 nM; in the test with Aβ-38 (read-out: Aβ 38 IC50) it was 501 to 1000 nM; with Aβ-40 (read-out: Aβ 40 IC50), over 5000 nM; in the test on Aβ-42 (setting [2]) it was 501 to 1000 nM; in the test with Aβ-42 (read-out: Aβ 42 IC50) it was 501 to 1000 nM.
With `CC(C)[C@@H](OC(=O)N1CCC1)[C@H]1C[C@@H](C)[C@H]2[C@H](O1)[C@H](O)[C@@]1(C)[C@@H]3CC[C@H]4C(C)(C)[C@@H](OC(=O)N5CC(CNS(=O)(=O)C(F)(F)F)C5)CC[C@@]45C[C@@]35CC[C@]21C` [Compound I-9], the IC50 in the test on Aβ-38 (read-out: Aβ 38 IC50) and in the test on Aβ-42 (read-out: Aβ 42 IC50) was 1000 to 5000 nM in each case.
As for `CC(C)[C@@H](OC(=O)N1CCC1)[C@H]1C[C@@H](C)[C@H]2[C@H](O1)[C@H](O)[C@@]1(C)[C@@H]3CC[C@H]4C(C)(C)[C@@H](OC(=O)N5CC[C@@H](C(=O)O)C5)CC[C@@]45C[C@@]35CC[C@]21C` [Compound I-10], the concentration for half-maximal inhibition (IC50) is 1000 to 5000 nM in the test on Aβ-38 (read-out: Aβ 38 IC50), over 5000 nM in the test on Aβ-40 (read-out: Aβ 40 IC50) and 1000 to 5000 nM in the test with Aβ-42 (read-out: Aβ 42 IC50).
As for `CC(C)[C@@H](OC(=O)N1CCC1)[C@H]1C[C@@H](C)[C@H]2[C@H](O1)[C@H](O)[C@@]1(C)[C@@H]3CC[C@H]4C(C)(C)[C@@H](OC(=O)N(C)C5CN(C)C5)CC[C@@]45C[C@@]35CC[C@]21C` [Compound I-11], the IC50 with Aβ-38 (setting [3]) is 100 to 500 nM; in the test on Aβ-38 (read-out: Aβ 38 IC50), 100 to 500 nM; in the test on Aβ-40 (setting [1]), over 5000 nM; in the test on Aβ-40 (read-out: Aβ 40 IC50) it was over 5000 nM; with Aβ-42 (setting [2]), under 100 nM; with Aβ-42 (read-out: Aβ 42 IC50), under 100 nM.
With `COCCN1CCN(C(=O)O[C@H]2CC[C@]34C[C@]35CC[C@]3(C)[C@@H]6[C@H](O[C@@H]([C@H](OC(=O)N7CCC7)C(C)C)C[C@H]6C)[C@H](O)[C@@]3(C)[C@@H]5CC[C@H]4C2(C)C)CC1` [Compound I-12], the IC50 with Aβ-38 (read-out: Aβ 38 IC50) is 1000 to 5000 nM; with Aβ-40 (read-out: Aβ 40 IC50) it was over 5000 nM; with Aβ-42 (read-out: Aβ 42 IC50), 501 to 1000 nM.
For `CC(C)[C@@H](OC(=O)N1CCC1)[C@H]1C[C@@H](C)[C@H]2[C@H](O1)[C@H](O)[C@@]1(C)[C@@H]3CC[C@H]4C(C)(C)[C@@H](OC(=O)N5CCNC(C(F)(F)F)C5)CC[C@@]45C[C@@]35CC[C@]21C` (stereo partly drawn) [Compound I-13], the IC50 with Aβ-38 (read-out: Aβ 38 IC50) and with Aβ-42 (read-out: Aβ 42 IC50) was 1000 to 5000 nM in each case.
Take `CC(C)[C@@H](OC(=O)N1CCC1)[C@H]1C[C@@H](C)[C@H]2[C@H](O1)[C@H](O)[C@@]1(C)[C@@H]3CC[C@H]4C(C)(C)[C@@H](OC(=O)N5CCN(C6COC6)CC5)CC[C@@]45C[C@@]35CC[C@]21C` [Compound I-14]: the IC50 with Aβ-38 (read-out: Aβ 38 IC50) and in the test with Aβ-42 (read-out: Aβ 42 IC50) was 501 to 1000 nM in each case.
Take `CC(C)[C@@H](OC(=O)N1CCC1)[C@H]1C[C@@H](C)[C@H]2[C@H](O1)[C@H](O)[C@@]1(C)[C@@H]3CC[C@H]4C(C)(C)[C@@H](OC(=O)N(C)CC(=O)O)CC[C@@]45C[C@@]35CC[C@]21C` [Compound I-15]: the 50% inhibitory concentration (IC50) in the test on Aβ-38 (read-out: Aβ 38 IC50) is 501 to 1000 nM; with Aβ-40 (read-out: Aβ 40 IC50) it was over 5000 nM; in the test on Aβ-42 (read-out: Aβ 42 IC50), 100 to 500 nM.

These data come from patent US20130060022A1, “Compounds useful for treating neurodegenerative disorders” (priority 2011, published 2013).
